For assay [1], the target named is human D2-long dopamine receptor (Homo sapiens (Human), UniProt P14416). Description: Radioligand binding (125I-IABN competition), D2. As to conditions: HEK cell membranes expressing human D2-long. The protocol:
(§1) The affinities of the target compounds were determined using radioligand binding experiments. […] Competition curves were modeled for a single site. Data from competition dose-response curves were analyzed using Tablecurve program (Jandel). IC50 values were converted to equilibrium dissociation constants (Ki values) using the Cheng and Prusoff correction.

The target in assay [2] is human D3 dopamine receptor (Homo sapiens (Human), UniProt P35462). Description: Radioligand binding (125I-IABN competition), D3. Particulars: for Ki: 125I-IABN competition, HEK cell membranes expressing human D3; for D2/D3 (D3 selectivity ratio, D2 Ki/D3 Ki): calculated D2 Ki/D3 Ki. The protocol:
as §1

Data on 17 molecules can be found in patent US9598387B2 (Southern Research Institute, priority 2012, dated 2017).

The structures appear in SMILES notation.

Sequence of human D3 dopamine receptor (P35462 whole entry): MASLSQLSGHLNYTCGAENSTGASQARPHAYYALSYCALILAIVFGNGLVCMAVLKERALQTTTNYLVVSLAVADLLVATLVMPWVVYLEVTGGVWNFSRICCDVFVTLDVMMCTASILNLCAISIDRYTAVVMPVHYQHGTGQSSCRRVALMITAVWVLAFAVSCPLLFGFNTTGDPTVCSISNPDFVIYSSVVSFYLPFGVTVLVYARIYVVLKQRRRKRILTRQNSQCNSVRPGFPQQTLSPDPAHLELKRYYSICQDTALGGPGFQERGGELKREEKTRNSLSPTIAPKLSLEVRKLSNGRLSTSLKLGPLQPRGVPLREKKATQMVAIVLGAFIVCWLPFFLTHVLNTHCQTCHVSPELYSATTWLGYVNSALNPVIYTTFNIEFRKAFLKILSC
Sequence of human D2-long dopamine receptor (P14416 whole entry): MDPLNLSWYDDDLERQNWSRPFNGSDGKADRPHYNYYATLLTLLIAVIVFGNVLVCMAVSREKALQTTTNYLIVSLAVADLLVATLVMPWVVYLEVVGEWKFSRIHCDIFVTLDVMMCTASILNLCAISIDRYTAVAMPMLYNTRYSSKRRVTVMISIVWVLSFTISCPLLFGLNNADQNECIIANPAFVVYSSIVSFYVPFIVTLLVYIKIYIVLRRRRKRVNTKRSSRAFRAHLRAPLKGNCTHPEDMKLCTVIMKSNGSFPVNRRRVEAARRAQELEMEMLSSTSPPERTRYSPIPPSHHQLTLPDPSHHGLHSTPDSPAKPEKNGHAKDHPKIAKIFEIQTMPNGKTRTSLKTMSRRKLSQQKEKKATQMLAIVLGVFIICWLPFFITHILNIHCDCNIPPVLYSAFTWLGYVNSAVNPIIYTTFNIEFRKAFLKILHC

`CC(C)(C)c1nc(N2CCN(CCCCNC(=O)N3CCN(c4cccc(Cl)c4Cl)CC3)CC2)cc(C(F)(F)F)n1` [Compound 18, N-(4-(4-(2-(tert-Butyl)-6-(trifluoromethyl)pyrimidin-4-yl)piperazin-1-yl)butyl)-4-(2,3-dichlorophenyl)piperazine-1-carboxamide]: the Ki (in general, a dissociation constant, usually derived from enzyme kinetics or from competition with a known ligand) in assay [1] turned out to be 0.759 ± 0.097 µM; in assay [2] it was 0.0246 ± 0.0049 µM. Moreover, in assay [2], the “D2/D3 (D3 selectivity ratio, D2 Ki/D3 Ki)” value is on record as 31.
On to `CC(C)(C)c1nc(N2CCN(CCCCNC(=O)N3CCc4[nH]c5ccc(C#N)cc5c4C3)CC2)cc(C(F)(F)F)n1` [Compound 54, N-(4-(4-(2-(tert-Butyl)-6-(trifluoromethyl)pyrimidin-4-yl)piperazin-1-yl)butyl)-8-cyano-3,4-dihydro-1H-pyrido[4,3-b]indole-2(5H)-carboxamide], for which the Ki in assay [1] was found to be 1.05 ± 0.149 µM. Further, in assay [2], the inhibition constant (Ki) amounted to 0.0403 ± 0.0072 µM and the “D2/D3 (D3 selectivity ratio, D2 Ki/D3 Ki)” value is 26.
The corresponding values for `O=C(NCCCCN1CCN(c2ccc3ccccc3n2)CC1)c1cn2cccnc2n1` [Compound 126, N-(4-(4-(Quinolin-2-yl)piperazin-1-yl)butyl)imidazo[1,2-a]pyrimidine-2-carboxamide] are 1.26 ± 0.142 µM, 0.161 µM and 8.
In the same order, the values of `Cc1ccc2[nH]c3c(c2c1)CN(C(=O)NCCCCN1CCN(c2cc(C(C)(C)C)nc(C)n2)CC1)CC3` [Compound 94, N-(4-(4-(6-(tert-Butyl)-2-methylpyrimidin-4-yl)piperazin-1-yl)butyl)-8-methyl-3,4-dihydro-1H-pyrido[4,3-b]indole-2(5H)-carboxamide] are 5.49 ± 1.15 µM, 0.219 ± 0.0238 µM and 25.
For the molecule `CN1CCC(N2CCN(C(=O)NCCCCN3CCN(c4cc(C(F)(F)F)nc(C(C)(C)C)n4)CC3)CC2)CC1` [Compound 76, N-(4-(4-(2-(tert-Butyl)-6-(trifluoromethyl)pyrimidin-4-yl)piperazin-1-yl)butyl)-4-(1-methylpiperidin-4-yl)piperazine-1-carboxamide], the values for the Ki in assay [1] and in assay [2] were 0.125 ± 0.0266 µM and 0.018 ± 0.003 µM, respectively. For the same molecule, the “D2/D3 (D3 selectivity ratio, D2 Ki/D3 Ki)” value in assay [2] is 7.
As for `CC(C)(C)c1nc(N2CCN(CCCCNC(=O)N3CCN(C(c4ccccc4)c4ccc(Cl)cc4)CC3)CC2)cc(C(F)(F)F)n1` (stereo not drawn) [Compound 73, N-(4-(4-(2-(tert-Butyl)-6-(trifluoromethyl)pyrimidin-4-yl)piperazin-1-yl)butyl)-4-((4-chlorophenyl)(phenyl)methyl)piperazine-1-carboxamide], the figures for the Ki in assay [1] and in assay [2] were 0.99 ± 0.192 µM and 0.13 ± 0.013 µM, respectively. Moreover, the “D2/D3 (D3 selectivity ratio, D2 Ki/D3 Ki)” value in assay [2] is 8.
In the same order, the values of `Cc1ccccc1N1CCN(C(=O)NCCCCN2CCN(c3cc(C(F)(F)F)nc(C(C)(C)C)n3)CC2)CC1` [Compound 58, N-(4-(4-(2-(tert-Butyl)-6-(trifluoromethyl)pyrimidin-4-yl)piperazin-1-yl)butyl)-4-(o-tolyl)piperazine-1-carboxamide] are 0.789 ± 0.192 µM, 0.0706 ± 0.0148 µM and 11.
As to `CC(C)(C)c1nc(N2CCN(CCCCNC(=O)N3CCc4ccccc4C3)CC2)cc(C(F)(F)F)n1` [Compound 41, N-(4-(4-(2-(tert-Butyl)-6-(trifluoromethyl)pyrimidin-4-yl)piperazin-1-yl)butyl)-3,4-dihydroisoquinoline-2(1H)-carboxamide], the results for the Ki in assay [1] and in assay [2] were 0.49 ± 0.07 µM and 0.0229 ± 0.005 µM, respectively. Moreover, the “D2/D3 (D3 selectivity ratio, D2 Ki/D3 Ki)” value in assay [2] was 21.
In the same order, the values of `CC(C)(C)c1cc(N2CCN(CCCCNC(=O)N3CCN(c4ccccc4)CC3)CC2)cc(C(C)(C)C)c1` [Compound 86, N-(4-(4-(3,5-Di-tert-butylphenyl)piperazin-1-yl)butyl)-4-phenylpiperazine-1-carboxamide] are 1.85 ± 0.197 µM, 0.11 ± 0.0116 µM and 17.
The molecule `CC(C)(C)c1nc(N2CCN(CCCCNC(=O)C3CCN(c4ccc(C(F)(F)F)cn4)CC3)CC2)cc(C(F)(F)F)n1` [Compound 110, N-(4-(4-(2-(tert-Butyl)-6-(trifluoromethyl)pyrimidin-4-yl)piperazin-1-yl)butyl)-1-(5-(trifluoromethyl)pyridin-2-yl)piperidine-4-carboxamide] had an inhibition constant (Ki) in assay [1] of 1.8 ± 0.257 µM. Further, in assay [2], the Ki was 0.167 ± 0.0085 µM and the “D2/D3 (D3 selectivity ratio, D2 Ki/D3 Ki)” value was 11.
In turn, `COc1ccc(N2CCN(C(=O)NCCCCN3CCN(c4cc(C(F)(F)F)nc(C(C)(C)C)n4)CC3)CC2)cc1` [Compound 21, N-(4-(4-(2-(tert-Butyl)-6-(trifluoromethyl)pyrimidin-4-yl)piperazin-1-yl)butyl)-4-(4-methoxyphenyl)piperazine-1-carboxamide] returned an inhibition constant Ki in assay [1] of 0.557 ± 0.0795 µM. Besides, in assay [2], the affinity corresponds to a Ki of 0.0116 ± 0.0009 µM and the “D2/D3 (D3 selectivity ratio, D2 Ki/D3 Ki)” value is recorded as 48.
`CC(C)(C)c1nc(N2CCN(CCCCNC(=O)N3CCN(Cc4cccc(C#N)c4)CC3)CC2)cc(C(F)(F)F)n1` [Compound 72, N-(4-(4-(2-(tert-Butyl)-6-(trifluoromethyl)pyrimidin-4-yl)piperazin-1-yl)butyl)-4-(3-cyanobenzyl)piperazine-1-carboxamide] displayed a Ki in assay [1] of 0.82 ± 0.178 µM. In addition, in assay [2], the affinity, expressed as Ki, was 0.0842 ± 0.0203 µM and the “D2/D3 (D3 selectivity ratio, D2 Ki/D3 Ki)” value is 10.
The corresponding values for `CC(C)(C)c1nc(N2CCN(CCCCNC(=O)N3CCN(c4ccc(Cl)c(Cl)c4)CC3)CC2)cc(C(F)(F)F)n1` [Compound 60, N-(4-(4-(2-(tert-Butyl)-6-(trifluoromethyl)pyrimidin-4-yl)piperazin-1-yl)butyl)-4-(3,4-dichlorophenyl)piperazine-1-carboxamide] are 0.57 ± 0.119 µM, 0.0466 ± 0.0091 µM and 12.
For the molecule `CC(C)(C)c1nc(N2CCN(CCCCNC(=O)N3CCN(C(=O)c4ccccc4)CC3)CC2)cc(C(F)(F)F)n1` [Compound 37, 4-Benzoyl-N-(4-(4-(2-(tert-butyl)-6-(trifluoromethyl)pyrimidin-4-yl)piperazin-1-yl)butyl)piperazine-1-carboxamide], the figures for the Ki in assay [1] and in assay [2] were 0.998 ± 0.252 µM and 0.029 ± 0.0024 µM, respectively. In addition, the “D2/D3 (D3 selectivity ratio, D2 Ki/D3 Ki)” value in assay [2] is reported as 34.
With `CC(C)(C)c1nc(N2CCN(CCCCNC(=O)N3CCN(c4ccccc4-c4ccccc4)CC3)CC2)cc(C(F)(F)F)n1` [Compound 43, 4-([1,1′-Biphenyl]-2-yl)-N-(4-(4-(2-(tert-butyl)-6-(trifluoromethyl)pyrimidin-4-yl)piperazin-1-yl)butyl)piperazine-1-carboxamide], the Ki in assay [1] stood at 1.02 ± 0.0756 µM. In assay [2], the inhibition constant Ki turned out to be 0.015 ± 0.0031 µM and the “D2/D3 (D3 selectivity ratio, D2 Ki/D3 Ki)” value is 68.
With `CC(C)(C)c1nc(N2CCN(CCCCNC(=O)N3CC(c4ccncc4)C3)CC2)cc(C(F)(F)F)n1` [Compound 38, N-(4-(4-(2-(tert-Butyl)-6-(trifluoromethyl)pyrimidin-4-yl)piperazin-1-yl)butyl)-3-(pyridin-4-yl)azetidine-1-carboxamide], the affinity in assay [1] corresponds to a Ki of 0.605 ± 0.062 µM. Also, in assay [2], the affinity corresponds to a Ki of 0.0035 ± 0.0007 µM and the “D2/D3 (D3 selectivity ratio, D2 Ki/D3 Ki)” value is recorded as 173.
Take `O=C(NCCCCN1CCN(c2ccnc3cc(Cl)ccc23)CC1)N1CCC(c2ccccc2)CC1` [Compound 85, N-(4-(4-(7-Chloroquinolin-4-yl)piperazin-1-yl)butyl)-4-phenylpiperidine-1-carboxamide]: the Ki in assay [1] was 2.79 ± 0.942 µM; in assay [2], 0.0879 ± 0.0228 µM. Moreover, the “D2/D3 (D3 selectivity ratio, D2 Ki/D3 Ki)” value in assay [2] is given as 32.
